Experimental data published in patent US20250215013A1, “SUBSTITUTED TRICYCLIC COMPOUNDS AS PARP INHIBITORS AND THE USE THEREOF” (IMPACT THERAPEUTICS (SHANGHAI), INC., priority 2022, published 2025).
pIC50: −log10 of the molar value.

Legend:
PDE3A = PDE3A (Homo sapiens (Human), UniProt Q14432); experiment: PDE3A fluorescence polarization (FP) assay; assay type: biochemical; settings: PDE3A enzyme activity, FAM-cAMP substrate
Description: A PDE3A fluorescence polarization (FP) assay in a multi-step format was performed using black, round bottom 384-well plates (Corning, 4514). The testing compounds were serially diluted from stock solutions to 11 concentrations with a 3-fold dilution factor using DMSO. Fifty nl of compound dilutions was mixed with 5 μl of reaction buffer (10 mM Tris-HCl, pH 7.2, 10 mM MgCl2, 0.05% NaN3, 0.1% phosphate-free BSA) containing 0.2 μM FAM-cAMP (BPS, 60200) and 2 nM PDE3A (Sino Biological, 11908-H20B1) enzyme, and incubated for 60 min at 25° C. Afterwards, 15 μl binding agent mixture (Molecular Devices, R8124) was added to each well and the plate was incubated for 60 min at 25° C. The plate was loaded to a BMG PHERAstar FSX to read Fluorescence Polarization (FP) values at a setting of: Ex: 485 nm and Em: 520 nm. Emission light intensity with polarizers parallel (Emi) and emission light intensity with polarizers perpendicular (Emi) were recorded. The Polarization (mP) values were calculated using the following formula: mP=(SignalEml−SignalEm⊥)/(SignalEml+SignalEm⊥).
• 1) The inhibition % of a compound dose is calculated as:
[formula] • wherein mPMin and mPMax refer to the polarization readings in the condition of substrate only and substrate+enzyme, respectively. • 2) The IC50 values were calculated from non-linear curve fitting using following regression equation using a commercial curve fitting software GraphPad Prism 9.2.0.
[formula] • wherein, X refers to Log of compound concentration and Y refers to % Inhibition.

MDA-MB-436 cells = experiment: Growth inhibition assay against BRCA mutant human breast cancer MDA-MB-436 cell line (CCK-8); assay type: cell-based; settings: Homo sapiens, MDA-MB-436, […], proliferation of MDA-MB-436 cells, 7 days
[1] = biological target: recombinant poly(ADP-ribose) polymerase 2 (PARP2); experiment: PARP2 chemiluminescent assay; assay type: biochemical; settings: inhibition of PARP2 enzyme activity, chemiluminescence
[2] = biological target: recombinant poly(ADP-ribose) polymerase 1 (PARP1) (Homo sapiens (Human), UniProt P09874)
Chain of recombinant poly(ADP-ribose) polymerase 1 (PARP1) (P09874 whole entry): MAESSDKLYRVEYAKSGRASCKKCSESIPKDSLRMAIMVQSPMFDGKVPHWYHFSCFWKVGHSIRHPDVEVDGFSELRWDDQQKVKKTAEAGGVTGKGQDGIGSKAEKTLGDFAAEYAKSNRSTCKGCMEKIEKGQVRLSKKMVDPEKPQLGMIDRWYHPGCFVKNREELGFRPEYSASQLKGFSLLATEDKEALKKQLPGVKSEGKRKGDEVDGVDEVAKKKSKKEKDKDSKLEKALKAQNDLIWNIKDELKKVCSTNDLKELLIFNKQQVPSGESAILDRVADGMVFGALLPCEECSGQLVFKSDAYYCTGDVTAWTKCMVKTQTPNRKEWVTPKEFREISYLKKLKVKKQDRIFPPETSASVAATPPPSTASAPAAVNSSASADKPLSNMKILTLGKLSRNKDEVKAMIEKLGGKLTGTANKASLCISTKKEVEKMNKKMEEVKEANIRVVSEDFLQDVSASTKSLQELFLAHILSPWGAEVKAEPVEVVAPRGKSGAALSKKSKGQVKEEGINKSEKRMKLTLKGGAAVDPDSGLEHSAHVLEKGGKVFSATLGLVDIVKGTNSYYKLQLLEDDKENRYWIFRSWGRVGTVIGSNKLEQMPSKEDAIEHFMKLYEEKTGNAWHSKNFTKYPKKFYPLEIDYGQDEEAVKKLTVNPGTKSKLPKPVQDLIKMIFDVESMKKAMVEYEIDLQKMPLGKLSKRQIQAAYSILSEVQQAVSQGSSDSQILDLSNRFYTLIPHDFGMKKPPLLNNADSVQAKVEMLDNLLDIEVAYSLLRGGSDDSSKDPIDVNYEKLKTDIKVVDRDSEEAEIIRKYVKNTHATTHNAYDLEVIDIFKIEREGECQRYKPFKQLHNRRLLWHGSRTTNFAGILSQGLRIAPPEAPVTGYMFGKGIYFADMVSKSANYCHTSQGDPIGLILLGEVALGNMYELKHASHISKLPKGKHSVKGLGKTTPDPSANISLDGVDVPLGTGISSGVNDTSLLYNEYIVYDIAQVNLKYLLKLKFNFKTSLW

Chain of PDE3A (Q14432 whole entry): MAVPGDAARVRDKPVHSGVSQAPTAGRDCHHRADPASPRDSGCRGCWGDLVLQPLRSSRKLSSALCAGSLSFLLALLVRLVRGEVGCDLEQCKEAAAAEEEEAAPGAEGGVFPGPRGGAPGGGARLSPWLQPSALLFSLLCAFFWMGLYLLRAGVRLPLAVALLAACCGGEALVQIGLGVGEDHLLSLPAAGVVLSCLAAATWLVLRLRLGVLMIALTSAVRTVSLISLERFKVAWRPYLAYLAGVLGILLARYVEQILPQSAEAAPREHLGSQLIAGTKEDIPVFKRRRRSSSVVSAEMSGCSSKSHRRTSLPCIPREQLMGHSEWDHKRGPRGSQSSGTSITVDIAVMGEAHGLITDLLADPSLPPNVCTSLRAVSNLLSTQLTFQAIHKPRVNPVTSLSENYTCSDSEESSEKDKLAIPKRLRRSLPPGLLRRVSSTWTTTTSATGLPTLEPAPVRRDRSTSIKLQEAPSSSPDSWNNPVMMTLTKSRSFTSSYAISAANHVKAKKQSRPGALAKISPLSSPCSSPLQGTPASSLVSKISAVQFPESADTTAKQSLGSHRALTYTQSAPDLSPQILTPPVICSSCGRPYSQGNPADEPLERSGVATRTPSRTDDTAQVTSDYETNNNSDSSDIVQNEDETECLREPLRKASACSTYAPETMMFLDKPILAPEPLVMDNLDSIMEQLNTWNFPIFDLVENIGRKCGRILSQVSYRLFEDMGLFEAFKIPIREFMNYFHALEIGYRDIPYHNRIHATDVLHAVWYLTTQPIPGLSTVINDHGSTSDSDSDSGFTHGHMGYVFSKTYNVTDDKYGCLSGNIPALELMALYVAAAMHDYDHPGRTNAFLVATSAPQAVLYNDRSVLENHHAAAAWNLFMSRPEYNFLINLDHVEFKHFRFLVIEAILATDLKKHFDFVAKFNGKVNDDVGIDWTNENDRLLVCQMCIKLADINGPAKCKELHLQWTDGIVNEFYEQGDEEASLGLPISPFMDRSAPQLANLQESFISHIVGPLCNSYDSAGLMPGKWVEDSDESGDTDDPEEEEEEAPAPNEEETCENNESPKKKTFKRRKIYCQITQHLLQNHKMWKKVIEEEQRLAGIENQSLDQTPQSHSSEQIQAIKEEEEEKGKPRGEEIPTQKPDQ

Row | Structure (SMILES) | pIC50 (PDE3A) | pIC50 (MDA-MB-436 cells) | IC50 [1] [nM] | pIC50 [2]
1 | CNC(=O)c1ccc(N2CCN(Cc3ccc4c(c3)[nH]c(=O)c3occc34)CC2)c(C)n1 [Example 2, 7-((4-(2-methyl-6-(methylcarbamoyl)pyridin-3-yl)piperazin-1-yl)methyl)furo[2,3-c]quinolin-4(5H)-one] | 5.84 |  |  | 
2 | CNC(=O)c1ccc(N2CCN(Cc3ccc4c(c3)[nH]c(=O)c3ccoc34)CC2)c(C)n1 [Example 6, 7-((4-(2-methyl-6-(methylcarbamoyl)pyridin-3-yl)piperazin-1-yl)methyl)furo[3,2-c]quinolin-4(5H)-one] | 6.24 |  |  | 
3 | CNC(=O)c1ccc(N2CCN(Cc3cc(F)c4c(c3)[nH]c(=O)c3occc34)CC2)c(C)n1 [Example 40, 9-fluoro-7-((4-(2-methyl-6-(methylcarbamoyl)pyridin-3-yl)piperazin-1-yl)methyl)furo[2,3-c]quinolin-4(5H)-one] | 6.16 | 8.61 |  | 
4 | CNC(=O)c1ccc(N2CCN(Cc3ccc4c([nH]c(=O)c5ccoc54)c3F)CC2)c(C)n1 [Example 43, 7-((4-(2-methyl-6-(methylcarbamoyl)pyridin-3-yl)piperazin-1-yl)methyl)-6-fluoro-furo[3,2-c]quinolin-4(5H)-one] | 5.07 | 8.23 | 5580 | 9.41
5 | CNC(=O)c1ccc(N2CCN(Cc3ccc4c([nH]c(=O)c5ccoc54)c3F)CC2)c(F)n1 [Example 44, 7-((4-(2-fluoro-6-(methylcarbamoyl)pyridin-3-yl)piperazin-1-yl)methyl)-6-fluoro-furo[3,2-c]quinolin-4(5H)-one] | 4.78 | 8.41 | 898 | 9.39
6 | CNC(=O)c1ccc(N2CCN(Cc3ccc4c([nH]c(=O)c5cn[nH]c54)c3F)CC2)c(F)n1 [Example 46, 7-((4-(2-fluoro-6-(methylcarbamoyl)pyridin-3-yl)piperazin-1-yl)methyl)-6-fluoro-1,5-dihydro-4H-pyrazolo[4,3-c]quinolin-4-one] | < 4.52 | 7.78 | 194 | 9.02
7 | CNC(=O)c1ccc(N2CCN(Cc3ccc4c([nH]c(=O)n5cccc45)c3F)CC2)c(C)n1 [Example 48, 8-((4-(2-methyl-6-(methylcarbamoyl)pyridin-3-yl)piperazin-1-yl)methyl)-7-fluoropyrrolo[1,2-c]quinazolin-5(6H)-one] | < 4.52 | 8.34 | 1980 | 8.75
8 | CNC(=O)c1ccc(N2CCN(Cc3ccc4c(c3)[nH]c(=O)c3c(F)cnn34)CC2)c(F)n1 [Example 49, 7-((4-(2-fluoro-6-(methylcarbamoyl)pyridin-3-yl)piperazin-1-yl)methyl)-3-fluoropyrazolo[1,5-a]quinoxalin-4(5H)-one] | 6.06 | 8.98 |  | 
9 | CNC(=O)c1ccc(N2CCN(Cc3ccc4c([nH]c(=O)c5c(Cl)cnn54)c3F)CC2)c(F)n1 [Example 60, 7-((4-(2-fluoro-6-(methylcarbamoyl)pyridin-3-yl)piperazin-1-yl)methyl)-6-fluoro-3-chloro-pyrazolo[1,5-a]quinoxalin-4(5H)-one] | < 4.52 | 8.85 |  | 
10 | O=C(NC1CC1)c1ccc(N2CCN(Cc3ccc4c([nH]c(=O)c5occc54)c3F)CC2)c(F)n1 [Example 67, 7-((4-(2-fluoro-6-(cyclopropylcarbamoyl)pyridin-3-yl)piperazin-1-yl)methyl)-6-fluorofuro[2,3-c]quinolin-4(5H)-one] | 4.86 | 8.18 |  | 
11 | CNC(=O)c1ccc(N2CCN(Cc3ccc4c([nH]c(=O)c5nn(C)cc54)c3F)CC2)c(F)n1 [Example 93, 6-fluoro-7-((4-(2-fluoro-6-(methylcarbamoyl)pyridin-3-yl)piperazin-1-yl)methyl)-2-methyl-2,5-dihydro-4H-pyrazolo[3,4-c]quinolin-4-one] | < 4.52 | 8.42 |  | 
12 | CNC(=O)c1ccc(N2CCN(Cc3cc4[nH]c(=O)c5occc5c4cc3C)CC2)c(F)n1 [Example 104, 7-((4-(2-fluoro-6-(methylcarbamoyl)pyridin-3-yl)piperazin-1-yl)methyl)-8-methylfuro[2,3-c]quinolin-4(5H)-one] |  | 7.49 | 487 | 8.23
13 | CNC(=O)c1ccc(N2CCN(Cc3ccc4c(c3)[nH]c(=O)c3ccoc34)CC2)cn1 [Example 118, 7-((4-(6-(methylcarbamoyl)pyridin-3-yl)piperazin-1-yl)methyl)furo[3,2-c]quinolin-4(5H)-one] |  | 8.81 | 273 | 9.28
14 | CNC(=O)c1ccc(N2CCN(Cc3cc4[nH]c(=O)n5nccc5c4cc3F)CC2)c(F)n1 [Example 120, 8-((4-(2-fluoro-6-(methylcarbamoyl)pyridin-3-yl)piperazin-1-yl)methyl)-9-fluoropyrazolo[1,5-c]quinazolin-5(6H)-one] |  | 7.63 | 683 | 8.73
15 | CNC(=O)c1ccc(N2CCN(Cc3ccc4c([nH]c(=O)c5c(C)cnn54)c3F)CC2)c(Cl)n1 [Example 131, 7-((4-(2-chloro-6-(methylcarbamoyl)pyridin-3-yl)piperazin-1-yl)methyl)-6-fluoro-3-methylpyrazolo[1,5-a]quinoxalin-4(5H)-one] | < 4.52 | 8.51 |  | 
16 | CNC(=O)c1ccc(N2CCN(Cc3cc(F)c4c(c3)[nH]c(=O)n3cc(C)nc43)CC2)c(C)n1 [Example 136, 8-((4-(2-methyl-6-(methylcarbamoyl)pyridin-3-yl)piperazin-1-yl)methyl)-2-methyl-10-fluoroimidazo[1,2-c]quinazolin-5(6H)-one] |  | 8.98 | 931 | 8.75
17 | CNC(=O)c1ccc(N2CCN(Cc3cc(F)c4c(c3)[nH]c(=O)n3cc(C)nc43)CC2)c(F)n1 [Example 137, 8-((4-(2-fluoro-6-(methylcarbamoyl)pyridin-3-yl)piperazin-1-yl)methyl)-2-methyl-10-fluoroimidazo[1,2-c]quinazolin-5(6H)-one] |  | 8.16 | 266 | 8.67
18 | CNC(=O)c1ccc(N2CCN(Cc3ccc4c([nH]c(=O)c5cc(C)nn54)c3F)CC2)c(Cl)n1 [Example 151, 7-((4-(2-chloro-6-(methylcarbamoyl)pyridin-3-yl)piperazin-1-yl)methyl)-6-fluoro-2-methylpyrazolo[1,5-a]quinoxalin-4(5H)-one] |  | 8.92 | 1210 | 9.30
19 | [2H]C([2H])([2H])NC(=O)c1ccc(N2CCN(Cc3ccc4c([nH]c(=O)c5c(C)cnn54)c3F)CC2)c(F)n1 [Example 159, 6-fluoro-7-((4-(2-fluoro-6-((methyl-d3)carbamoyl)pyridin-3-yl)piperazin-1-yl)methyl)-3-methylpyrazolo[1,5-a]quinoxalin-4(5H)-one] | < 4.52 | 8.41 |  | 
20 | CNC(=O)c1ccc(N2CCN(Cc3ccc4c([nH]c(=O)c5c(C)cnn54)c3F)C[C@H]2C)c(F)n1 [Example 166, (R)-6-fluoro-7-((4-(2-fluoro-6-(methylcarbamoyl)pyridin-3-yl)-3-methylpiperazin-1-yl)methyl)-3-methylpyrazolo[1,5-a]quinoxalin-4(5H)-one] |  | 7.79 | 801 | 9.68
21 | CNC(=O)c1ccc2c(n1)OC[C@H]1CN(Cc3ccc4c([nH]c(=O)c5c(C)cnn54)c3F)CCN21 [Example 167, (R)-6-fluoro-3-methyl-7-((8-methylcarbamoyl-1,2,4a,5-tetrahydropyrazino[1,2-d]pyrido[2,3-b][1,4]oxazin-3(4H)-yl)methyl)pyrazolo[1,5-a]quinoxalin-4(5H)-one] |  | 7.73 | 397 | 9.48
22 | CNC(=O)c1ccc(N2CCN(Cc3ccc4c([nH]c(=O)c5c(F)cnn54)c3F)CC2)c(Cl)n1 [Example 178, 7-((4-(2-chloro-6-(methylcarbamoyl)pyridin-3-yl)piperazin-1-yl)methyl)-3,6-difluoropyrazolo[1,5-a]quinoxalin-4(5H)-one] |  | 9.10 | 1390 | 9.55
23 | CNC(=O)c1ccc(N2CCN(Cc3cc4[nH]c(=O)c5c(F)cnn5c4cc3F)CC2)c(Cl)n1 [Example 184, 7-((4-(2-chloro-6-(methylcarbamoyl)pyridin-3-yl)piperazin-1-yl)methyl)-3,8-difluoropyrazolo[1,5-a]quinoxalin-4(5H)-one] |  | 8.62 | 67.1 | 9.30
24 | [2H]C([2H])([2H])NC(=O)c1ccc(N2CCN(Cc3ccc4c([nH]c(=O)c5c(F)cnn54)c3F)CC2)c(F)n1 [Example 185, 7-((4-(2-fluoro-6-((methyl-d3)carbamoyl)pyridin-3-yl)piperazin-1-yl)methyl)-3,6-difluoropyrazolo[1,5-a]quinoxalin-4(5H)-one] |  | 9.11 | 431 | 9.62
25 | CNC(=O)c1ccc(N2CCN(Cc3ccc4c([nH]c(=O)c5c(F)cnn54)c3Cl)CC2)c(F)n1 [Example 192, 3-fluoro-7-((4-(2-fluoro-6-(methylcarbamoyl)pyridin-3-yl)piperazin-1-yl)methyl)-6-chloropyrazolo[1,5-a]quinoxalin-4(5H)-one] | < 4.52 | 8.25 |  | 
26 | CNC(=O)c1ccc(N2CCN(Cc3ccc4c([nH]c(=O)c5c(Cl)c(C)nn54)c3F)CC2)c(F)n1 [Example 199, 6-fluoro-7-((4-(2-fluoro-6-(methylcarbamoyl)pyridin-3-yl)piperazin-1-yl)methyl)-2-methyl-3-chloropyrazolo[1,5-a]quinoxalin-4(5H)-one] |  | 8.95 | 17.9 | 9.80
27 | CNC(=O)c1ccc(N2CCN(C(C)c3ccc4c([nH]c(=O)c5c(C)cnn54)c3F)CC2)c(F)n1 (stereo not shown) [Example 204, 6-fluoro-7-(1-(4-(2-fluoro-6-(methylcarbamoyl)pyridin-3-yl)piperazin-1-yl)ethyl)-3-methylpyrazolo[1,5-a]quinoxalin-4(5H)-one] |  | 7.92 | > 10000 | 9.17
